In patent publication US20260250312A1, “ANTIBACTERIAL COMPOUNDS ELIMINATING DORMANT BACTERIAL CELLS” (UNIVERSITÉ D'AIX-MARSEILLE, priority 2022, published 2026):
Values joined by “and” are separate entries in the source; they are usually repeats but may differ in a detail not shown here. Equal entries are not always repeated.

Legend:
[1] = system: Staphylococcus aureus (ATCC25923); assay: Microdilution MIC assay (CLSI-based), S. aureus; format: cell-based; settings: Staphylococcus aureus, ATCC25923, 20 h, 20 hours incubation at 35-37° C., MHB; read-out: Minimum inhibitory concentration S. aureus ATCC25923
How it was run: (§1)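 Broth microdilution per modified CLSI guidelines in Mueller Hinton broth, 200 μL, inoculum ca. 5×10^5 CFU/mL; compounds tested as salts, twofold dilutions from 0.2 mg/mL, in triplicate. MIC determined from OD at 620 nm after incubation.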

[2] = system: Enterococcus faecalis (ATCC29212); assay: Microdilution MIC assay (CLSI-based), E. faecalis; format: cell-based; settings: Enterococcus faecalis, ATCC29212, 20 h, 20 hours incubation at 35-37° C., MHB; read-out: Minimum inhibitory concentration E. faecalis ATCC29212
How it was run: as §1

[3] = system: Escherichia coli (ATCC28922); assay: Microdilution MIC assay (CLSI-based), E. coli; format: cell-based; settings: Escherichia coli, ATCC28922, 20 h, 20 hours incubation at 35-37° C., MHB; read-out: Minimum inhibitory concentration E. coli ATCC28922
How it was run: as §1

[4] = system: Pseudomonas aeruginosa (ATCC27853); assay: Microdilution MIC assay (CLSI-based), P. aeruginosa; format: cell-based; settings: Pseudomonas aeruginosa, ATCC27853, 20 h, 20 hours incubation at 35-37° C., MHB; read-out: Minimum inhibitory concentration P. aeruginosa ATCC27853
How it was run: as §1

[5] = system: CHO-K1 cells; assay: WST1 cytotoxicity test; format: cell-based, Chinese hamster; settings: Cricetulus griseus, CHO-K1, 24 h, WST1, 24 hours at 37° C.; read-out: IC50 CHO
How it was run: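 CHO-K1 cells pre-cultured 24 h, then exposed 24 h at 37 °C to increasing compound concentrations. Viability read as WST-1 formazan absorbance at 450 nm after 20 min; dose-response fitted by nonlinear regression.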

SMILES	MIC [1]	MIC [2]	MIC [3]	MIC [4]	IC50 [5]
COC(=O)[C@H](NC(=O)CC[C@@H](C)[C@H]1CCC2C3CC[C@@H]4C[C@@H](NCCCN5CCN(CCCN)CC5)CC[C@]4(C)C3C[C@H](O)[C@@]21C)C(C)C (stereo partly drawn) [Compound S053, methyl ((4R)-4-((3S,5R,10S,12S,13R,17R)-3-((3-(4-(3-aminopropyl)piperazin-1-yl)propyl)amino)-12-hydroxy-10,13-dimethylhexadecahydro-1H-cyclopenta[a]phenanthren-17-yl)pentanoyl)-D-valinate]	12.5 µM and 8 µg/mL	200 µM and 128 µg/mL	100 µM and 64 µg/mL	> 200 µM and > 128 µg/mL	> 100 µM and > 68 µg/mL
CC[C@@H](C)[C@H](NC(=O)CC[C@@H](C)[C@H]1CCC2C3C(CC[C@@]21C)[C@@]1(C)CC[C@H](NCCCNCCCN)C[C@H]1C[C@H]3O)C(=O)OC (stereo partly drawn) [Compound S050, methyl (2S,3R)-2-((4R)-4-((3S,5S,7R,10S,13R,17R)-3-((3-((3-aminopropyl)amino)propyl)amino)-7-hydroxy-10,13-dimethylhexadecahydro-1H-cyclopenta[a]phenanthren-17-yl)pentanamido)-3-methylpentanoate]	3.12 µM and 2 µg/mL	25 µM and 16 µg/mL	12.5 µM and 8 µg/mL	50 µM and 32 µg/mL	10.5 µM and 6.63 µg/mL
COC(=O)[C@@H](NC(=O)CC[C@@H](C)[C@H]1CC[C@H]2[C@@H]3[C@H](O)C[C@@H]4CC(NCCCN(CCCN)CCCN)CC[C@]4(C)[C@H]3CC[C@]12C)C(C)C (mixture of isomers) [Compound S003, methyl ((4R)-4-((3S,5S,7R,10S,13R,17R)-3-((3-(bis(3-aminopropyl)amino)propyl)amino)-7-hydroxy-10,13-dimethylhexadecahydro-1H-cyclopenta[a]phenanthren-17-yl)pentanoyl)valinate]	6.25 µM and 4 µg/mL	50 µM and 32 µg/mL	100 µM and 64 µg/mL	100 µM and 64 µg/mL	165 µM and 111 µg/mL
COC(=O)[C@H](NC(=O)CC[C@@H](C)[C@H]1CCC2C3CC[C@@H]4C[C@@H](NCCCN(CCCN)CCCN)CC[C@]4(C)C3C[C@H](O)[C@@]21C)C(C)C (stereo partly drawn) [Compound S054, methyl ((4R)-4-((3S,5R,10S,12S,13R,17R)-3-((3-(bis(3-aminopropyl)amino)propyl)amino)-12-hydroxy-10,13-dimethylhexadecahydro-1H-cyclopenta[a]phenanthren-17-yl)pentanoyl)-D-valinate]	6.25 µM and 4 µg/mL	100 µM and 64 µg/mL	50 µM and 32 µg/mL	100 µM and 64 µg/mL	> 100 µM and > 67 µg/mL
COC(=O)[C@@H](NC(=O)CC[C@@H](C)[C@H]1CCC2C3CC[C@@H]4C[C@@H](NCCCNCCCCNCCCN)CC[C@]4(C)C3CC[C@@]21C)C(C)C (stereo partly drawn) [Compound S057, methyl ((4R)-4-((3S,5R,10S,13R,17R)-3-((3-((4-((3-aminopropyl)amino)butyl)amino)propyl)amino)-10,13-dimethylhexadecahydro-1H-cyclopenta[a]phenanthren-17-yl)pentanoyl)-L-valinate]	3.12 µM and 2 µg/mL	3.12 µM and 2 µg/mL	3.12 µM and 2 µg/mL	6.25 µM and 4 µg/mL	30.2 µM and 20.4 µg/mL
COC(=O)[C@@H](Cc1ccccc1)NC(=O)CC[C@@H](C)[C@H]1CCC2C3C(CC[C@@]21C)[C@@]1(C)CC[C@H](NCCCNCCCNCCCN)C[C@H]1C[C@H]3O (stereo partly drawn) [Compound S022, methyl ((4R)-4-((3S,5S,7R,10S,13R,17R)-3-((3-((3-((3-aminopropyl)amino)propyl)amino)propyl)amino)-7-hydroxy-10,13-dimethylhexadecahydro-1H-cyclopenta[a]phenanthren-17-yl)pentanoyl)-D-phenylalaninate]	12.5 µM and 8 µg/mL	25 µM and 16 µg/mL	12.5 µM and 8 µg/mL	12.5 µM and 8 µg/mL	17.1 µM and 12.4 µg/mL
COC(=O)CNC(=O)CC[C@@H](C)[C@H]1CCC2C3C(C[C@H](O)[C@@]21C)[C@@]1(C)CC[C@H](NCCCNCCCCNCCCN)C[C@H]1C[C@H]3O (stereo partly drawn) [Compound S051, methyl ((4R)-4-((3S,5S,7R,10S,12S,13R,17R)-3-((3-((4-((3-aminopropyl)amino)butyl)amino)propyl)amino)-7,12-dihydroxy-10,13-dimethylhexadecahydro-1H-cyclopenta[a]phenanthren-17-yl)pentanoyl)glycinate]	6.25 µM and 4 µg/mL	50 µM and 32 µg/mL	25 µM and 16 µg/mL	25 µM and 16 µg/mL	33.3 µM and 22.1 µg/mL
COC(=O)[C@H](NC(=O)CC[C@@H](C)[C@H]1CCC2C3C(CC[C@@]21C)[C@@]1(C)CC[C@H](NCCNCCN)C[C@H]1C[C@H]3O)C(C)C (stereo partly drawn) [Compound S020, methyl ((4R)-4-((3S,5S,7R,10S,13R,17R)-3-((2-((2-aminoethyl)amino)ethyl)amino)-7-hydroxy-10,13-dimethylhexadecahydro-1H-cyclopenta[a]phenanthren-17-yl)pentanoyl)-D-valinate]	100 µM and 64 µg/mL	> 200 µM and > 128 µg/mL	100 µM and 64 µg/mL	> 200 µM and > 128 µg/mL	17.2 µM and 10.2 µg/mL
COC(=O)[C@@H](NC(=O)CC[C@@H](C)[C@H]1CCC2C3C(CC[C@@]21C)[C@@]1(C)CC[C@H](NCCNCCNCCNCCN)C[C@H]1C[C@H]3O)C(C)C (stereo partly drawn) [Compound S049, methyl ((4R)-4-((3S,5S,7R,10S,13R,17R)-3-((2-((2-((2-((2-aminoethyl)amino)ethyl)amino)ethyl)amino)ethyl)amino)-7-hydroxy-10,13-dimethylhexadecahydro-1H-cyclopenta[a]phenanthren-17-yl)pentanoyl)-L-valinate]	50 µM and 32 µg/mL	100 µM and 64 µg/mL	100 µM and 64 µg/mL	100 µM and 64 µg/mL	94.9 µM and 64.2 µg/mL
COC(=O)[C@H](CC(C)C)NC(=O)CC[C@@H](C)[C@H]1CCC2C3C(CC[C@@]21C)[C@@]1(C)CC[C@H](NCCCNCCCCNCCCN)C[C@H]1C[C@H]3O (stereo partly drawn) [Compound S036, methyl ((4R)-4-((3S,5S,7R,10S,13R,17R)-3-((3-((4-((3-aminopropyl)amino)butyl)amino)propyl)amino)-7-hydroxy-10,13-dimethylhexadecahydro-1H-cyclopenta[a]phenanthren-17-yl)pentanoyl)-L-leucinate]	50 µM and 32 µg/mL	6.25 µM and 4 µg/mL	6.25 µM and 4 µg/mL	12.5 µM and 8 µg/mL	50.5 µM and 35.6 µg/mL
COC(=O)[C@@H](NC(=O)CC[C@@H](C)[C@H]1CCC2C3C(CC[C@@]21C)[C@@]1(C)CC[C@H](NCCCN(C)CCCN)C[C@H]1C[C@H]3O)C(C)C (stereo partly drawn) [Compound S026, methyl ((4R)-4-((3S,5S,7R,10S,13R,17R)-3-((3-((3-aminopropyl)(methyl)amino)propyl)amino)-7-hydroxy-10,13-dimethylhexadecahydro-1H-cyclopenta[a]phenanthren-17-yl)pentanoyl)-L-valinate]	25 µM and 16 µg/mL	50 µM and 32 µg/mL	25 µM and 16 µg/mL	200 µM and 126 µg/mL	11.4 µM and 7.2 µg/mL
COC(=O)[C@H]1CCCN1C(=O)CC[C@@H](C)[C@H]1CCC2C3C(CC[C@@]21C)[C@@]1(C)CC[C@H](NCCCNCCCN)C[C@H]1C[C@H]3O (stereo partly drawn) [Compound S045, methyl ((4R)-4-((3S,5S,7R,10S,13R,17R)-3-((3-((3-aminopropyl)amino)propyl)amino)-7-hydroxy-10,13-dimethylhexadecahydro-1H-cyclopenta[a]phenanthren-17-yl)pentanoyl)-D-prolinate]	2 µg/mL and 3.13 µM	4 µg/mL and 6.25 µM	4 µg/mL and 6.25 µM	16 µg/mL and 25 µM	7.77 µg/mL and 12.6 µM
COC(=O)[C@H](Cc1ccccc1)NC(=O)CC[C@@H](C)[C@H]1CCC2C3C(CC[C@@]21C)[C@@]1(C)CC[C@H](NCCCN(C)CCCN)C[C@H]1C[C@H]3O (stereo partly drawn) [Compound S031, methyl ((4R)-4-((3S,5S,7R,10S,13R,17R)-3-((3-((3-aminopropyl)(methyl)amino)propyl)amino)-7-hydroxy-10,13-dimethylhexadecahydro-1H-cyclopenta[a]phenanthren-17-yl)pentanoyl)-L-phenylalaninate]	6.25 µM and 4 µg/mL	25 µM and 16 µg/mL	12.5 µM and 8 µg/mL	25 µM and 16 µg/mL	84.5 µM and 57.6 µg/mL
